Measured values reported in patent USRE39887E1, “Dehydrodidemnin B” (Pharma Mar, S.A., priority 1989, dated 2007).
Values after ≈ are worked out from the molar mass of the structure shown. Starred links: 1 amine or outer side, 2 acyl side, 3 side chain; linkers in the order of their positions; H or OH if unused. Positions of bridges follow the written chain, without caps; N, C: chain ends. Non-standard residues stand in square brackets, D forms with d. Residues, ends and D or L forms follow the SMILES beside them. *: point of attachment. X1 = CC[C@H](C)[C@@H](N[*:1])[C@@H](O)CC(=O)O[C@H](C(=O)[C@H](C)C(=O)[*:2])C(C)C; NMeY = CN[C@@H](Cc1ccc(O)cc1)C(=O)O; dNMeL = CN[C@H](CC(C)C)C(=O)O; Pyruvoyl = CC(=O)C(=O)*

Experiments:
[1] = Montgomery et al., Transplantation, 40, 49-56 (1985); cited from earlier work
human lymphocytes = details: compared with other didemnin compounds; Montgomery et al. (1987); cited from earlier work
murine cells = assay: Mixed lymphocyte reaction
[2] = tested on: CV-1 cells (monkey kidney cells); assay: Cytotoxicity to CV-1 cells; format: cell-based
B-16 cells = assay: Growth inhibition of B-16 cells; format: cell-based, mouse; details: for % Inhibition / net increase in cell number: 4 day after seeding
Method: 2.4 Assay Against B-16 (Mouse Melanoma)
B-16 cells were seeded into 16 mm wells at 1×10^4 cells per well in 1 mL aliquots of MEM 10C […] were carried out in triplicate. A separate set of cultures without drug was counted daily to ensure that the cells remained in exponential growth over the period for observation. Cells were typsinized and counted 4 day after seeding.

P-388 cells = assay: Growth inhibition of P-388 cells; format: cell-based, mouse; details: for % Inhibition / net increase in cell number: three days
Method: 2.2 Assay Against P-388 Cells (Lymphoid Neoplasm from DBA/2mouse)
P-388 cells were seeded into 16 mm wells at 1×10^4 cells per well in 1 mL aliquots of MEM 10C containing the indicated concentrations of drug. All determination were carried out in triplicate. Cells were counted after three days of incubation. A separate set of cultures within drug was counted daily to ensure that the cells remained in exponential growth over the period of observation.

murine T-cells = assay: Growth of murine T-cells
[3] = tested on: P-388 mouse leukemia cells; assay: P-388 in vivo activity; details: QD 1-9, IP
A-549 cells = assay: Growth inhibition of A-549 cells; format: cell-based, human; details: for % Inhibition / net increase in cell number: 4 days after seeding
Method: 2.5 Assay Against A-549 Cells (Human Lung Carcinoma)
A-549 cells were seeded into 16 mm wells at 1×10^4 cells per well in 1 mL aliquots of MEM 10C. The following day, the medium was replaced with 0.5 mL aliquots of MEM 10C containing the indicated concentrations of drug. All determinations were carried out in triplicate. A separate set of cultures without drug was counted daily to ensure that the cells remained in exponential growth over the period of observation. Cells were trypsinated and counted 4 days after seeding.

B-16 melanoma cells = assay: B-16 melanoma in vivo activity; parameters: species or system mouse; details: QD 1-9, IP; for B-16 Melanoma % T/C: significant activity T/C ≧ 125
murine B-cells = assay: Growth of murine B-cells
HeLa cells = assay: Growth inhibition of HeLa cells; format: cell-based, human; details: HeLa cells in vitro
Method: 2.6 Assay Against HeLa Cells (Human Cervix Epithelioid Carcinoma)
HeLa cells were seeded into 16 mm wells at 1×10^4 cells per well in 1 mL aliquots of MEM 10C. The following day, the medium was replaced with 0.5 mL aliquots of MEM 10C containing the indicated concentrations of drug. All determinations were carried out in triplicate. A separate set of cultures without drug was counted daily to ensure that the cells remained in exponential growth over the period of observation. Cells were trypsinized and counted 4 days after seeding.

L-929 cells = assay: Growth inhibition of L-929 cells; format: cell-based, mouse; details: for % Inhibition / net increase in cell number: 4 days after seeding
Method: 2.3 Assay Against L-929 Cells (Mouse Areolar and Adipose Tissue)
L-929 cells were seeded into 16 mm wells at 1×10^4 cells per well in 1 mL aliquots of MEM 10C. […] The following day, the medium was replaced with 0.5 mL aliquots of MEM 10C containing the indicated concentrations of drug. All determinations were carried out in triplicate. A separate set of cultures without drug was counted daily to ensure that the cells remained in exponential growth over the period of observation. Cells were typsinized and counted 4 days after seeding.

[4] = tested on: Herpes simplex virus, type 1; assay: Inhibition of HSV-1 replication in CV-1 cells; format: cell-based; parameters: net virus produced / % Inhibition: dose or concentration left out as unconfirmed; details: HSV-1 in CV-1 cells; for % Inhibition / net virus produced: 24 hours after infection
Method: 2.8 Assay Against HSV-1 (Herpes Simplex Virus Type-1)
16 mm diameter wells were seeded each with 2×10^5 CV-1 cells in 1 mL aliquots of MEM 10C. Four days after, cells were infected with HSV-1 at 10C PFU per well. After adsorption for 1.5 hours, the inoculum was replaced in pairs of wells with 0.5 mL aliquots of MEM 5C containing the indicated concentrations of drug. Cells from two wells without drug were scraped into the medium and frozen 4 hours after infection to provide a baseline for calculating new virus production. The average of these samples was 2.5×10^5+1.2×10^6 PFU per mL. The remaining samples were collected 24 hours after infection.

L-1210 cells = assay: Growth inhibition of L-1210 cells; format: cell-based, mouse
Method: 2.1 Assay Against L-1210 Cells (Ascetic Fluid from DBA/2mouse)
L-1210 cells were seeded into 16 mm wells at 1×10^4 cells per well in 1 mL aliquots of MEN 10C containing the indicated concentrations of drug. All determinations were carried out in triplicate. Cells were counted after three […] to ensure that the cells remained in exponential growth over the period of observation.

[5] = tested on: Lewis lung carcinoma cells; assay: Lewis lung in vivo activity; details: QD 1-9, IP
[6] = Immunosuppressive / immunomodulator activity
KB cells = assay: Growth inhibition of KB cells; format: cell-based, human; details: for % Inhibition / net increase in cell number: KB

## CC[C@H](C)[C@H]1NC(=O)[C@@H](NC(=O)[C@@H](CC(C)C)N(C)C(=O)[C@@H]2CCCN2C(=O)C(C)O)[C@@H](C)OC(=O)[C@H](Cc2ccc(OC)cc2)N(C)C(=O)[C@@H]2CCCN2C(=O)[C@H](CC(C)C)NC(=O)[C@@H](C)C(=O)[C@H](C(C)C)OC(=O)C[C@@H]1O (stereo partly shown) [Didemnin B]
[1]
  immunosuppressive activity: potent immunosuppressive activity
Human lymphocytes
  inhibition of binding of prolactin to human lymphocytes: more potent inhibition

## CC[C@H](C)[C@H]1NC(=O)[C@@H](NC(=O)[C@@H](CC(C)C)N(C)C(=O)[C@@H]2CCCN2C(=O)C(C)=O)[C@@H](C)OC(=O)[C@H](Cc2ccc(OC)cc2)N(C)C(=O)[C@@H]2CCCN2C(=O)[C@H](CC(C)C)NC(=O)[C@@H](C)C(=O)[C@H](C(C)C)OC(=O)C[C@@H]1O [DDB, dehydrodidemnin B] (Pyruvoyl-P[dNMeL]T[X1]LP[NMeY](Me); ester 3-C)
Murine cells
  immune reaction in the mixed lymphocyte reaction: suppresses the immune reaction of murine cells
[2]
  IC50: 1000 ng/mL (≈ 901 nM)
B-16 cells; B-16, 0.12 ng/mL DDB
  % Inhibition: 25%
  net increase in cell number: 1.27 × 10^5
B-16 cells; B-16, 0.16 ng/mL DDB
  % Inhibition: 0%
  net increase in cell number: 1.71 × 10^5
B-16 cells; B-16, 0.25 ng/mL DDB
  % Inhibition: 54%
  net increase in cell number: 8.25 × 10^5
B-16 cells; B-16, 0.5 ng/mL DDB
  % Inhibition: 74%
  net increase in cell number: 4.50 × 10^4
B-16 cells; B-16, 1.0 ng/mL DDB
  % Inhibition: 83%
  net increase in cell number: 2.88 × 10^4
B-16 cells; B-16 cells in vitro
  IC50: 0.225 ng/mL (≈ 0.203 nM)
P-388 cells; P-388, 0.12 ng/mL DDB
  % Inhibition: 29%
  net increase in cell number: 3.97 × 10^5
P-388 cells; P-388, 0.25 ng/mL DDB
  % Inhibition: 77%
  net increase in cell number: 1.27 × 10^5
P-388 cells; P-388, 0.5 ng/mL DDB
  % Inhibition: 92%
  net increase in cell number: 4.47 × 10^5
P-388 cells; P-388 cells in vitro
  IC50: 0.175 ng/mL (≈ 0.158 nM)
Murine T-cells
  growth of murine T-cells: inhibits the growth
[3]; 80 μg/kg/injn
  P-388, Median Survival Time: 19.5 days
[3]; 160 μg/kg/injn
  P-388, Median Survival Time: 21.0 days
A-549 cells; A-549, 0.25 ng/mL DDB
  % Inhibition: 41%
  net increase in cell number: 4.80 × 10^4
A-549 cells; A-549, 0.50 ng/mL DDB
  % Inhibition: 50%
  net increase in cell number: 4.00 × 10^4
A-549 cells; A-549, 1.0 ng/mL DDB
  % Inhibition: 68%
  net increase in cell number: 2.50 × 10^4
A-549 cells; A-549, 2.5 ng/mL DDB
  % Inhibition: 84%
  net increase in cell number: 1.30 × 10^4
A-549 cells; A-549 cells in vitro
  IC50: 0.5 ng/mL (≈ 0.45 nM)
B-16 melanoma cells; 80 μg/kg/injn
  B-16 Melanoma Median Survival Time Days: >27.0 days
  B-16 Melanoma % T/C: >158%
B-16 melanoma cells; 160 μg/kg/injn
  B-16 Melanoma Median Survival Time Days: >27.0 days
  B-16 Melanoma % T/C: >158%
Murine B-cells
  growth of murine B-cells: inhibits the growth
HeLa cells
  IC50: 0.5 ng/mL (≈ 0.45 nM)
L-929 cells; L-929, 1 ng/mL DDB
  % Inhibition: 27%
  net increase in cell number: 2.31 × 10^5
L-929 cells; L-929, 2.5 ng/mL DDB
  % Inhibition: 64%
  net increase in cell number: 1.13 × 10^5
L-929 cells; L-929, 5 ng/mL DDB
  % Inhibition: 84%
  net increase in cell number: 5 × 10^5
L-929 cells; L-929 cells in vitro
  IC50: 1.9 ng/mL (≈ 1.71 nM)
[4]
  IC50: 60 ng/mL (≈ 54 nM)
[4]; 0.03 DDB
  % Inhibition: 16%
  net virus produced: 3.8 × 10^8 PFU/mL
[4]; 0.1 DDB
  % Inhibition: 67%
  net virus produced: 1.5 × 10^8 PFU/mL
[4]; 0.3 DDB
  % Inhibition: 96%
  net virus produced: 1.9 × 10^8 PFU/mL
[4]; 1 DDB
  % Inhibition: 100%
  net virus produced: 0 PFU/mL
L-1210 cells; L-1210, 0.05 ng/mL DDB
  % Inhibition: 7%
  net increase in cell number: 2.7 × 10^5
L-1210 cells; L-1210, 0.1 ng/mL DDB
  % Inhibition: 7%
  net increase in cell number: 2.7 × 10^5
L-1210 cells; L-1210, 0.2 ng/mL DDB
  % Inhibition: 28%
  net increase in cell number: 2.1 × 10^5
L-1210 cells; L-1210, 0.5 ng/mL DDB
  % Inhibition: 66%
  net increase in cell number: 1.0 × 10^5
L-1210 cells; L-1210, 1 ng/mL DDB
  % Inhibition: 91%
  net increase in cell number: 2.5 × 10^5
L-1210 cells; L-1210, 2 ng/mL DDB
  % Inhibition: 98%
  net increase in cell number: 6.3 × 10^5
L-1210 cells; L-1210 cells in vitro
  IC50: 0.3 ng/mL (≈ 0.27 nM)
[5]; 80 μg/kg/injn
  Lewis Lung, Mean Tumor Volume: 189 mm^3
[5]; 160 μg/kg/injn
  Lewis Lung, Mean Tumor Volume: 0 mm^3
[6]
  immunomodulator activity: powerful immunomodulator
KB cells; KB cells in vitro
  IC50: 5.6 ng/mL (≈ 5.04 nM)
KB cells; 2.5 ng/mL DDB
  % Inhibition: 0%
  net increase in cell number: 4.57 × 10^4
KB cells; 5 ng/mL DDB
  % Inhibition: 46%
  net increase in cell number: 2.40 × 10^4
KB cells; 10 ng/mL DDB
  % Inhibition: 77%
  net increase in cell number: 1.02 × 10^4
